From patent US20250136614A1, “2,7-SUBSTITUTED PYRROLO[2,1-F][1,2,4]TRIAZINE COMPOUND HAVING PROTEIN KINASE INHIBITORY ACTIVITY” (Magicbullettherapeutics Co., Ltd., priority 2021, published 2025) come the findings set out here.

The target in one experiment is T1, Ba/F3 FLT3 (ITD/D835Y) (Homo sapiens, UniProt P36888, D835Y, cells depend on it, form not given).
T1 sequence (P36888 1-993 D835Y): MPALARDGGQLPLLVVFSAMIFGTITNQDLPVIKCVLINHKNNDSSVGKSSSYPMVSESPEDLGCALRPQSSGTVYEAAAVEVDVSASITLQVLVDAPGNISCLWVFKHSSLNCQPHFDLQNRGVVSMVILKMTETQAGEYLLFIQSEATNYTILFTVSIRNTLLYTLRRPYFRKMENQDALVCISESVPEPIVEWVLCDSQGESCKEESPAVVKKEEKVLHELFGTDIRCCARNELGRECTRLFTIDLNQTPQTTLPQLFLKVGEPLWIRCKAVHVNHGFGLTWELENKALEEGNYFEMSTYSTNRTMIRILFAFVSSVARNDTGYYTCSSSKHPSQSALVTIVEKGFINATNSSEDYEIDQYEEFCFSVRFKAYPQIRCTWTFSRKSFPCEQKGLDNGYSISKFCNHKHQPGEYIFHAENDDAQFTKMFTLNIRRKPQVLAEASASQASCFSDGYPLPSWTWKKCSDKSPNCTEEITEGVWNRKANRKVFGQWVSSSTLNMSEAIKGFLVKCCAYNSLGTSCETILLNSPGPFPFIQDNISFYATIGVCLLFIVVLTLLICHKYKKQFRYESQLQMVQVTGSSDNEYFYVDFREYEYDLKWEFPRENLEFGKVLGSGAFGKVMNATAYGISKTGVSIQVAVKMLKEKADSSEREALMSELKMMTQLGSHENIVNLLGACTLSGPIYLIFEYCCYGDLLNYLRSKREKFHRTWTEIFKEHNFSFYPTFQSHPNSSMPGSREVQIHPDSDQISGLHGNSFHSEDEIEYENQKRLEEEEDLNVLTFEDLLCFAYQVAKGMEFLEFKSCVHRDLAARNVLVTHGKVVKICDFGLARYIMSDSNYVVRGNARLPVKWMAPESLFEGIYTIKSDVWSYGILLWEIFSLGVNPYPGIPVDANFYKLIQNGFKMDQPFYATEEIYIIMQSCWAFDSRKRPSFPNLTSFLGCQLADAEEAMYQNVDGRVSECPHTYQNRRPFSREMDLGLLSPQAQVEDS
The experiment in a line: Ba/F3 cell growth inhibition (CellTiter-Glo, 72 hours). It counts as cell-based. Conditions: read-out: Ba/F3 GI50s (μM) FLT3 (ITD/D835Y). In general terms: ATP-based viability assays read luminescence as a measure of living cells.

For experiment [1], the target named is T2, Ba/F3 FLT3 (ITD/D835YF691L) (Homo sapiens, UniProt P36888, F691L/D835Y, cells depend on it, form not given).
T2 sequence (P36888 1-993 F691L/D835Y): T1 sequence (P36888 1-993 D835Y) with F691L
The description is as above. It counts as cell-based. Conditions: read-out: Ba/F3 GI50s (μM) FLT3 (ITD/D835YF691L).

Molecules are shown by their SMILES. Substitutions are numbered along the chain they refer to.

Turning to `CN1CCCn2cc(cn2)Nc2ncc3ccc(n3n2)-c2ccc(cc2)OCC1` [Example 2], the GI50 (at Ba/F3 FLT3 (ITD/D835Y); in experiment [1]) was below 1 µM in each case.

Regarding `CC(=O)N1CCCn2cc(cn2)Nc2ncc3ccc(n3n2)-c2ccc(cc2)OCC1` [Example 3, 1-((2^1Z,4^4E)-4^1H-11-oxa-3,8-diaza-2(7,2)-pyrrolo[2,1-f1][1,2,4]triazina-4(4,1)-pyrazola-1(1,4)-benzenacycloundecaphane-8-yl)ethan-1-one], the GI50 (on Ba/F3 FLT3 (ITD/D835Y); in experiment [1]) was below 1 µM throughout.

Regarding `COc1cccc(NC(=O)N2CCCn3cc(cn3)Nc3ncc4ccc(n4n3)-c3ccc(cc3)OCC2)c1` [Example 7, (2^1Z,4^4E)-N-(3-methoxyphenyl)-4^1H-11-oxa-3,8-diaza-2(7,2)-pyrrolo[2,1-f][1,2,4]triazina-4(4,1)-pyrazola-1(1,4)-benzenecycloundecaphane-8-carboxamide], the GI50 at Ba/F3 FLT3 (ITD/D835Y) was below 1 µM; in experiment [1], 1 to 10 µM.

For `CS(=O)(=O)N1CCCn2cc(cn2)Nc2ncc3ccc(n3n2)-c2ccc(cc2)OCC1` [Example 9, (2^1Z,4^4E)-8-(methylsulfonyl)-4^1H-11-oxa-3,8-diaza-2(7,2)-pyrrolo[2,1-f][1,2,4]triazina-4(4,1)-pyrazola-1(1,4)-benzenecycloundecaphane], the GI50 (on Ba/F3 FLT3 (ITD/D835Y); in experiment [1]) was below 1 µM in each case.

`O=C1CCCCCCn2cc(cn2)-c2ccc3cnc(nn23)Nc2ccc(cc2)OCCCN1` [Example 17, (1^4Z,2^1Z)-1′H-5-oxa-3,9-diaza-2(7,2)-pyrrolo[2,1-f][1,2,4]triazina-1(4,1)-pyrazola-4(1,4)-benzenacyclohexadecaphan-10-one]: the GI50 (at Ba/F3 FLT3 (ITD/D835Y); in experiment [1]) was 1 to 10 µM each time.

For the compound `O=C1CCCCCCOc2ccc(cc2F)-c2ccc3cnc(nn23)Nc2ccc(cc2)OCCCN1` [Example 20, (Z)-13-fluoro-5,17-dioxa-3,9-diaza-2(7,2)-pyrrolo[2,1-f][1,2,4]triazina-1,4(1,4)-dibenzenacycloheptadecaphan-10-one], the GI50 at Ba/F3 FLT3 (ITD/D835Y) was 1 to 10 µM; in experiment [1] it was at least 10 µM.

With `O=C1CCCCCCOc2ccc(cc2)-c2ccc3cnc(nn23)Nc2ccc(cc2)N2CCN(CCCN1)CC2` [Example 23, (Z)-17-oxa-3,9-diaza-2(7,2)-pyrrolo[2,1-f][1,2,4]triazina-5(1,4)-piperazina-1,4(1,4)-dibenzenacycloheptadecaphan-10-one], the GI50 on Ba/F3 FLT3 (ITD/D835Y) is below 1 µM; in experiment [1], 1 to 10 µM.

For the compound `O=C1CCCCCCOc2ccc(cc2)-c2ccc3cnc(nn23)Nc2ccc(cc2)N2CCN1CC2` [Example 24, (Z)-13-oxa-3-aza-2(7,2)-pyrrolo[2,1-f][1,2,4]triazina-5(1,4)-piperazina-1,4(1,4)-dibenzenacyclotridecaphan-6-one], the GI50 is 1 to 10 µM at Ba/F3 FLT3 (ITD/D835Y) and at least 10 µM in experiment [1].

For the compound `O=C1CCCCOc2ccc(cc2)-c2ccc3cnc(nn23)Nc2cnn(c2)C2CCN1CC2` [Example 25, (2^1Z,4^4E)-4^1H-11-oxa-3-aza-2(7,2)-pyrrolo[2,1-f][1,2,4]triazina-5(4,1)-piperidina-4(4,1)-pyrazola-1(1,4)-benzenacycloundecaphan-6-one], the GI50 was below 1 µM on Ba/F3 FLT3 (ITD/D835Y) and 1 to 10 µM in experiment [1].

With `O=C1CCCCOc2ccc(cc2)-c2ccc3cnc(nn23)Nc2cnn(c2)C2CCN(CCCN1)CC2` [Example 26, (2^1Z,4^4E)-4^1H-15-oxa-3,9-diaza-2(7,2)-pyrrolo[2,1-f1][1,2,4]triazina-5(4,1)-piperidina-4(4,1)-pyrazola-1(1,4)-benzenacyclopentadecaphan-10-one], the GI50 (at Ba/F3 FLT3 (ITD/D835Y); in experiment [1]) was below 1 µM each time.

As for `O=C1CCCCCCOc2ccc(cc2)-c2ccc3cnc(nn23)Nc2cnn(c2)C2CCN(CCCN1)CC2` [Example 27, (2^1Z,4^4E)-4^1H-17-oxa-3,9-diaza-2(7,2)-pyrrolo[2,1-f1][1,2,4]triazina-5(4,1)-piperidina-4(4,1)-pyrazola-1(1,4)-benzenacycloheptadecaphan-10-one], the GI50 (on Ba/F3 FLT3 (ITD/D835Y); in experiment [1]) was below 1 µM throughout.

Turning to `O=C1COCCOc2ccc(cc2)-c2ccc3cnc(nn23)Nc2ccc(cc2)OCCCN1` [Example 28, (Z)-5,12,15-trioxa-3,9-diaza-2(7,2)-pyrrolo[2,1-f][1,2,4]triazina-1,4(1,4)-dibenzenacyclopentadecaphan-10-one], the results for the GI50 (at Ba/F3 FLT3 (ITD/D835Y); in experiment [1]) were below 1 µM and 1 to 10 µM, respectively.

As for `O=C1CCCCCCOc2ccc(cc2)-c2ccc3cnc(nn23)Nc2ccc(cc2)OCCCN1` [Example 29, (Z)-5,17-dioxa-3,9-diaza-2(7,2)-pyrrolo[2,1-f][1,2,4]triazina-1,4(1,4)-dibenzenacycloheptadecaphan-10-one], the GI50 (at Ba/F3 FLT3 (ITD/D835Y); in experiment [1]) was 1 to 10 µM in each case.

Regarding `c1cc2ccc1Nc1ncc3ccc(n3n1)-c1ccc(cc1)OCCNCCCO2` [Example 30, (Z)-5,12-dioxa-3,9-diaza-2(7,2)-pyrrolo[2,1-f][1,2,4]triazina-1,4(1,4)-dibenzenacyclododecaphane], the GI50 (on Ba/F3 FLT3 (ITD/D835Y); in experiment [1]) was below 1 µM each time.

For `COc1cc2ccc1Nc1ncc3ccc(n3n1)-c1ccc(cc1)OCCOCC(=O)NCCCO2` [Example 34, (Z)-42-methoxy-5,12,15-trioxa-3,9-diaza-2(7,2)-pyrrolo[2,1-f][1,2,4]triazina-1,4(1,4)-dibenzenacyclopentadecaphan-10-one], the GI50 (at Ba/F3 FLT3 (ITD/D835Y); in experiment [1]) was 1 to 10 µM throughout.

As to `O=C1COCCOc2ccc(cc2)-c2ccc3cnc(nn23)Nc2cnn(c2)CCCN1` [Example 35, (2^1Z,4^4E)-4^1H-11,14-dioxa-3,8-diaza-2(7,2)-pyrrolo[2,1-f1][1,2,4]triazina-4(4,1)-pyrazola-1(1,4)-benzenacyclotetradecaphan-9-one], the GI50 (on Ba/F3 FLT3 (ITD/D835Y); in experiment [1]) was below 1 µM throughout.

For `O=C1CCCCOc2ccc(cc2)-c2ccc3cnc(nn23)Nc2cnn(c2)CCCN1` [Example 36, (2^1Z,4^4E)-4^1H-14-oxa-3,8-diaza-2(7,2)-pyrrolo[2,1-f][1,2,4]triazina-4(4,1)-pyrazola-1(1,4)-benzenacyclotetradecaphan-9-one], the GI50 (at Ba/F3 FLT3 (ITD/D835Y); in experiment [1]) was below 1 µM in each case.

Regarding `O=C1CCCCCCOc2ccc(cc2)-c2ccc3cnc(nn23)Nc2cnn(c2)CCCN1` [Example 37, (2^1Z,4^4E)-4^1H-16-oxa-3,8-diaza-2(7,2)-pyrrolo[2,1-f1][1,2,4]triazina-4(4,1)-pyrazola-1(1,4)-benzenacyclohexadecaphan-9-one], the GI50 at Ba/F3 FLT3 (ITD/D835Y) was below 1 µM; in experiment [1], 1 to 10 µM.

For the compound `O=C1CCCCOc2ccc(cc2)-c2ccc3cnc(nn23)Nc2ccc(cc2)OCCCN1` [Example 38, (Z)-5,15-dioxa-3,9-diaza-2(7,2)-pyrrolo[2,1-f][1,2,4]triazina-1,4(1,4)-dibenzenacyclopentadecaphan-10-one], the GI50 was below 1 µM on Ba/F3 FLT3 (ITD/D835Y) and 1 to 10 µM in experiment [1].
